Source: patent US9475841B2, “Melanoma antigen peptide and uses thereof” (INSERM (INSTITUT NATIONAL DE LA SANTE ET DE LA RECHERCHE …, priority 2012, dated 2016)

Columns and labels:
Assay type in all cases: cell-based, human
[1] = system: CD4 T cell clone 4E2-DQβ1*0201; assay: Cytokine profile of CD4 T cell clone stimulated with cognate peptide (intracellular staining); settings: cognate peptide 10 μM, 5 hours
Experimental: Lymphocytes were stimulated for 5 hours in the presence of brefeldin A (10 μg/mL) either with peptide alone (10 μM) in an autopresentation assay or with B-EBV or HLA-class II expressing melanoma cells pulsed 2 hours with the cognate peptide, at a ratio 1:2. In some experiments, blocking mAb against HLA-DP (clone B7.21 from Dr Charron, UMR940, Paris), HLA-DQ (clone SPVL3, Beckman Coulter) or HLA-DR (clone L243, BD Biosciences) were added at a concentration of 12.5 μg/ml. Cells were then stained with APC-conjugated anti-CD4 mAb, fixed with 4% paraformaldehyde, labeled with PE-conjugated anti-cytokine mAb and analyzed by flow cytometry.
We also documented the T helper profile of each T cell clone, by stimulating the CD4 T cell clones with the cognate peptide, and analyzing cytokine production. All the clones expressed Th1 cytokines (TNFα, IFNγ, IL2 and GM-CSF). On the contrary, these clones differ in their expression of Th2 cytokines. Indeed, the two DQ2 restricted T cell clones (9C12 and 4E2) and the DR1 restricted one (5F9) also strongly express two Th2 cytokines (IL4, and IL13), whereas the DR11-restricted T cell clone only weakly expressed IL4 (Table IV). None of the CD4 T cell expresses IL10 or IL5 at a significant level.

[2] = system: MELOE-1 specific CD4+ T cells; assay: MELOE-1 CD4+ T cell responses in PBMC from healthy donors: restimulation of microcultures with overlapping peptides, CD4/TNF-α staining; settings: for Microcultures containing MELOE-1 specific CD4+ T cells (TNF-α production): positive/tested microcultures; for donors in which CD4 responses against the region were detected: seven healthy donors
Experimental: PBMC from healthy donors were stimulated with 10 μM of MELOE-1. After 14 days, the presence of CD4 T cells specific for the different regions of MELOE-1 was assessed by restimulating cells with MELOE-12-21, MELOE-111-30, MELOE-118-37 and MELOE-126-46 peptides, followed by CD4/TNF-α double staining and flow cytometry analysis. Between brackets is indicated the mean % of TNF-α producing CD4 T cells, in positive microcultures. NA: not available.
(§1) PBMC from healthy donors or melanoma patients (2·10^5 cells/well) were cultured for 14 days with 10 μM of MELOE-1 whole antigen (46 amino acids) in RPMI medium supplemented with 8% HS, 50 IU/ml of rIL-2 (Chiron, France) and L-Glutamin, in 96-well multiplates. Microcultures were then restimulated individually with each overlapping peptide (MELOE-12-21, MELOE-111-30, MELOE-118-37, MELOE-12646 or MELOE-122-46 for melanoma patients) in the presence of 10 μg/mL brefeldin A for 5 hours and the percentage of CD4^+ specific T cells was assessed by TNF-α, IFN-γ or IL-4 intracellular staining. A negative control without peptide was included in all experiments.
Our purpose was to look for the existence of class II helper epitopes all along MELOE-1 sequence (SEQ ID NO:20), in order to document the immunogenicity of the different regions of this melanoma antigen. We stimulated 2·10^7 PBMC from seven healthy donors with MELOE-1 whole antigen and tested, after a 14-day culture period the presence of CD4 T cells specific for each region of the protein. Microcultures were screened for TNFα production by CD4+ T cells, after restimulation with four MELOE-1 derived overlapping peptides (Table I), in an autopresentation assay. […] On the contrary, the central region 18-37, containing an already described DR11-restricted epitope (24-37) located just at the end of this 20-mer peptide (Rogel et al., 2011), induced specific responses in microcultures deriving from only 2/7 donors (HD9 and HD17, both expressing the DR11 element). In these two donors, we detected 6 and 7% of positive microcultures, containing between 0.6 to 3.7% of TNFα producing CD4 T cells.

[3] = system: MELOE-1 specific CD4 T cells; assay: MELOE-1 CD4+ T cell responses in PBMC from melanoma patients: restimulation with peptides, CD4/IFN-γ (Th1) and CD4/IL4 (Th2) staining; settings: for mean % of cytokine producing CD4 T cells, in positive microcultures (IFN-γ): Th1; for mean % of cytokine producing CD4 T cells, in positive microcultures (IL4): Th2; for Th1 responses (IFN-γ positive microcultures) / Th2 responses (IL4 positive microcultures): positive/tested microcultures
Experimental: PBMC from melanoma patients were stimulated with 10 μM of MELOE-1. After 14 days, the presence of CD4 T cells specific for the different regions of MELOE-1 was assessed by restimulating cells with MELOE-12-21, MELOE-111-30 and MELOE-122-46 peptides, followed by CD4/IFN-γ double staining for the detection of Th1 responses, and by CD4/IL4 double staining for Th2 responses. Between brackets is indicated the mean % of cytokine producing CD4 T cells, in positive microcultures.
as §1
In order to confirm the immunogenicity of each MELOE-1 regions in melanoma patients, we stimulated melanoma patients PBMC with the MELOE-1 whole protein, and tested the reactivity of stimulated lymphocytes towards the three most immunogenic regions: 2-21, 11-30, and 22-46. For this study, instead of challenging microcultures with the 18-37 peptide, that appeared poorly immunogenic, we extended the C-terminus region from 26-46 to 22-46, in order to also detect responses to our previously described HLA-DR11-restricted epitope (24-37). […] We tested the induction of CD4 specific responses from MELOE-1 stimulated PBMC of […] melanoma patients. We documented CD4 responses specific for the central region of MELOE-1 (11-30) for 7/9 patients, whereas responses specific for MELOE-12-21 and MELOE-122-46 were respectively detected in 4/9 and 5/9 patients (Table III). These responses were mainly Th1 responses (IFN-g production) while less frequent Th2 responses specific for the three regions of MELOE-1 were detected in 3/9 patients for MELOE-12-21, 2/9 patients for MELOE-111-30 and 5/9 patients for MELOE-122-46 (Table III). […] Concerning Th2 responses, much less frequent, the C-term region appeared to induce more frequently the growth of IL-4 producing CD4 T cells than the two other regions (FIG. 2A). […] In summary, stimulation of patient's PBMC with MELOE-1 induced Th1 responses specific for diverse epitopes located all along the protein sequence, and among the different regions, the central region (11-30) and the C-term region (22-46) appeared to be especially immunogenic in term of frequency of responses.

[4] = donor HD9 (DPβ1*0902/1501, DQβ1*0301, DRβ1*1104/1201)
[5] = donor HD17 (DPβ1*0401/0301, DQβ1*0301/0603, DRβ1*1101/1301)
[6] = donor HD22 (DPβ1*0401/1101, DQβ1*0202, DRβ1*0701)
[7] = donor HD24 (DPβ1*0401/0101, DQβ1*0501/0602, DRβ1*0101/1501)
[8] = donor HD25 (DPβ1*0401/0402, DQβ1*0201, DRβ1*0301)
[9] = donor HD27 (DQβ1*501/0201, DRβ1*0101/0301)

PWHPSERISSTLNDECWPASL [MELOE-126-46]
Cytokine profile: GM-CSF [1]: GM-CSF^high | Cytokine profile: IFN [1]: IFN^high | Cytokine profile: IL2 [1]: IL2^high | Cytokine profile: IL4 [1]: IL4^high | Cytokine profile: IL5 [1]: IL5^low | Cytokine profile: IL10 [1]: IL10^neg | Cytokine profile: IL13 [1]: IL13^high | Cytokine profile: TNF [1]: TNF^high | mean % of TNF-α producing CD4 T cells, in positive microcultures ([2]; donor HD9): (1.5% ± 0.5) | Microcultures containing MELOE-1 specific CD4+ T cells (TNF-α production) [2, 4]: 5/96 | mean % of TNF-α producing CD4 T cells, in positive microcultures ([2]; donor HD17): (5.2% ± 4.1) | Microcultures containing MELOE-1 specific CD4+ T cells (TNF-α production) [2, 5]: 10/96 | mean % of TNF-α producing CD4 T cells, in positive microcultures ([2]; donor HD22): (1% ± 0.1) | Microcultures containing MELOE-1 specific CD4+ T cells (TNF-α production) [2, 6]: 2/96 | Microcultures containing MELOE-1 specific CD4+ T cells (TNF-α production) [2, 7]: 0/96 | mean % of TNF-α producing CD4 T cells, in positive microcultures ([2]; donor HD25): (1.1% ± 0.9) | Microcultures containing MELOE-1 specific CD4+ T cells (TNF-α production) [2, 8]: 15/96 | Microcultures containing MELOE-1 specific CD4+ T cells (TNF-α production) [2, 9]: 0/96 | Microcultures containing MELOE-1 specific CD4+ T cells (TNF-α production) ([2]; donor HD28 (DRβ1*0301)): 0/96 | donors in which CD4 responses against the region were detected [2]: 4 out of 7

AACPPWHPSERISSTLNDECWPASL [MELOE-122-46]
Th1 responses, % of tested microcultures ([3]; 576 tested microcultures from melanoma patients, IFN-γ): 9.6% | patients in which Th2 responses were detected ([3]; melanoma patients, IL4): 5/9 | patients in which CD4 responses specific for the region were detected ([3]; melanoma patients, Table III, Th1 (IFN-γ)): 5/9 | mean % of cytokine producing CD4 T cells, in positive microcultures (IFN-γ) ([3]; patient Pt ≠ 1): (4.8% ± 7.2) | mean % of cytokine producing CD4 T cells, in positive microcultures (IL4) ([3]; patient Pt ≠ 1): (0.8% ± 0.3) | Th1 responses (IFN-γ positive microcultures) ([3]; patient Pt ≠ 1): 11/48 | Th2 responses (IL4 positive microcultures) ([3]; patient Pt ≠ 1): 4/48 | mean % of cytokine producing CD4 T cells, in positive microcultures (IFN-γ) ([3]; patient Pt ≠ 2): (0.6% ± 0.02) | Th1 responses (IFN-γ positive microcultures) ([3]; patient Pt ≠ 2): 2/96 | Th2 responses (IL4 positive microcultures) ([3]; patient Pt ≠ 2): 0/96 | Th1 responses (IFN-γ positive microcultures) ([3]; patient Pt ≠ 3 (DPβ1*0201/2001, DQβ1*0303/0501, DRβ1*0101/0701)): 4/96 | mean % of cytokine producing CD4 T cells, in positive microcultures (IFN-γ) ([3]; patient Pt ≠ 3): (1.9% ± 1.3) | Th2 responses (IL4 positive microcultures) ([3]; patient Pt ≠ 3): 0/96 | Th1 responses (IFN-γ positive microcultures) ([3]; patient Pt ≠ 4): 0/48 | Th2 responses (IL4 positive microcultures) ([3]; patient Pt ≠ 4): 0/48 | mean % of cytokine producing CD4 T cells, in positive microcultures (IL4) ([3]; patient Pt ≠ 5): (0.8%) | Th1 responses (IFN-γ positive microcultures) ([3]; patient Pt ≠ 5): 0/48 | Th2 responses (IL4 positive microcultures) ([3]; patient Pt ≠ 5): 1/48 | Th1 responses (IFN-γ positive microcultures) ([3]; patient Pt ≠ 6): 0/48 | Th2 responses (IL4 positive microcultures) ([3]; patient Pt ≠ 6): 0/48 | mean % of cytokine producing CD4 T cells, in positive microcultures (IFN-γ) ([3]; patient Pt ≠ 7): (2.9% ± 3.5) | mean % of cytokine producing CD4 T cells, in positive microcultures (IL4) ([3]; patient Pt ≠ 7): (1.5% ± 0.7) | Th1 responses (IFN-γ positive microcultures) ([3]; patient Pt ≠ 7): 28/48 | Th2 responses (IL4 positive microcultures) ([3]; patient Pt ≠ 7): 7/48 | mean % of cytokine producing CD4 T cells, in positive microcultures (IFN-γ) ([3]; patient Pt ≠ 8): (0.5%) | mean % of cytokine producing CD4 T cells, in positive microcultures (IL4) ([3]; patient Pt ≠ 8): (0.6%) | Th1 responses (IFN-γ positive microcultures) ([3]; patient Pt ≠ 8): 1/48 | Th2 responses (IL4 positive microcultures) ([3]; patient Pt ≠ 8): 1/48 | mean % of cytokine producing CD4 T cells, in positive microcultures (IL4) ([3]; patient Pt ≠ 9): (0.7% ± 0.15) | Th1 responses (IFN-γ positive microcultures) ([3]; patient Pt ≠ 9): 0/48 | Th2 responses (IL4 positive microcultures) ([3]; patient Pt ≠ 9): 3/48

PSEGAACPPWHPSERISSTL [MELOE-118-37]
mean % of TNF-α producing CD4 T cells, in positive microcultures ([2]; donor HD9): (1.4% ± 0.6) | Microcultures containing MELOE-1 specific CD4+ T cells (TNF-α production) [2, 4]: 6/96 | mean % of TNF-α producing CD4 T cells, in positive microcultures ([2]; donor HD17): (3% ± 0.7) | Microcultures containing MELOE-1 specific CD4+ T cells (TNF-α production) [2, 5]: 7/96 | Microcultures containing MELOE-1 specific CD4+ T cells (TNF-α production) [2, 6]: 0/96 | Microcultures containing MELOE-1 specific CD4+ T cells (TNF-α production) [2, 7]: 0/96 | Microcultures containing MELOE-1 specific CD4+ T cells (TNF-α production) [2, 8]: 0/96 | Microcultures containing MELOE-1 specific CD4+ T cells (TNF-α production) [2, 9]: 0/96 | Microcultures containing MELOE-1 specific CD4+ T cells (TNF-α production) ([2]; donor HD28 (DRβ1*0301)): 0/48 | % of positive microcultures ([2]; healthy donor HD9 (first of the two donors named)): 6% | % of positive microcultures ([2]; healthy donor HD17 (second of the two donors named)): 7% | donors in which CD4 responses against the region were detected [2]: 2/7
